Test results as given in the supplement of paper PMC11061612.

Columns and labels:
[1] = compound: O=C(Nc1ccc2[nH]nc(-c3ccncc3)c2c1)[C@@H]1CCN(CC(=O)N2CCN(c3ccc(-c4ncccn4)cc3)CC2)C1; details: max 5 µM
Outline: (§1)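 Cancer cell lines in 1536-well plates (7.5 μl DMEM/F12 or RPMI, 10% FBS) were held 24 hours at 37°C and 5% CO2 and then dosed for 72 hours at a final DMSO of typically 0.2%. Viability was taken from CellTiter-Glo 2.0 luminescence, scaled between blank-well and DMSO-well means. Curves were fitted as two-parameter logistic models with a non-linear mixed effects model, from which the single-agent IC50 was taken.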

Paclitaxel = compound: CC(=O)O[C@H]1C(=O)[C@@]2(C)[C@H]([C@H](OC(=O)c3ccccc3)[C@]3(O)C[C@H](OC(=O)[C@H](O)[C@@H](NC(=O)c4ccccc4)c4ccccc4)C(C)=C1C3(C)C)[C@]1(OC(C)=O)CO[C@@H]1C[C@@H]2O [Paclitaxel]; details: max 3 µM
Outline: as §1

Taselisib = compound: Cc1nc(-c2cn3c(n2)-c2ccc(-c4cnn(C(C)(C)C(N)=O)c4)cc2OCC3)n(C(C)C)n1 [Taselisib]; details: max 10 µM
Outline: as §1

Olaparib = compound: O=C(c1cc(Cc2n[nH]c(=O)c3ccccc23)ccc1F)N1CCN(C(=O)C2CC2)CC1 [Olaparib]; details: max 10 µM
Outline: as §1

Etoposide = compound: COc1cc([C@@H]2c3cc4c(cc3[C@@H](O[C@@H]3O[C@@H]5CO[C@@H](C)O[C@H]5[C@H](O)[C@H]3O)[C@H]3COC(=O)[C@H]23)OCO4)cc(OC)c1O [Etoposide]; details: max 10 µM
Outline: as §1

AZD1775 = compound: C=CCn1c(=O)c2cnc(Nc3ccc(N4CCN(C)CC4)cc3)nc2n1-c1cccc(C(C)(C)O)n1 [AZD1775]; details: max 3 µM
Outline: as §1

AZD1390 = compound: CC(C)n1c(=O)n(C)c2cnc3cc(F)c(-c4ccc(OCCCN5CCCCC5)nc4)cc3c21 [AZD1390]; details: max 0.3 µM
Outline: as §1

Gefitinib = compound: COc1cc2ncnc(Nc3ccc(F)c(Cl)c3)c2cc1OCCCN1CCOCC1 [Gefitinib]; details: max 10 µM
Outline: as §1

SRA737 = compound: N#Cc1cnc(Nc2cc(NC[C@H]3CNCCO3)c(C(F)(F)F)cn2)cn1 [SRA737]; details: max 10 µM
Outline: as §1

Trametinib = compound: CC(=O)Nc1cccc(-n2c(=O)n(C3CC3)c(=O)c3c(Nc4ccc(I)cc4F)n(C)c(=O)c(C)c32)c1 [Trametinib]; details: max 1 µM
Outline: as §1

SN-38 = compound: CCc1c2c(nc3ccc(O)cc13)-c1cc3c(c(=O)n1C2)COC(=O)[C@]3(O)CC [SN-38]; details: max 0.3 µM
Outline: as §1

AZD5363 = compound: C1CN(CCC1(C(=O)N[C@@H](CCO)C2=CC=C(C=C2)Cl)N)C3=NC=NC4=C3C=CN4 [AZD5363]; details: max 10 µM
Outline: as §1

Carboplatin = compound: C1CC(C1)(C(=O)[O-])C(=O)[O-].N.N.[Pt+2] [Carboplatin]; details: max 10 µM
Outline: as §1

Savolitinib = compound: C[C@@H](c1ccc2nccn2c1)n1nnc2ncc(-c3cnn(C)c3)nc21 [Savolitinib]; details: max 1 µM
Outline: as §1

Palbociclib = compound: CC(=O)c1c(C)c2cnc(Nc3ccc(N4CCNCC4)cn3)nc2n(C2CCCC2)c1=O [Palbociclib]; details: max 10 µM
Outline: as §1

MK-2206 = compound: NC1(c2ccc(-c3nc4ccn5c(=O)[nH]nc5c4cc3-c3ccccc3)cc2)CCC1 [MK-2206]; details: max 10 µM
Outline: as §1

5-Fluorouracil = compound: O=c1[nH]cc(F)c(=O)[nH]1 [5-Fluorouracil]; details: max 20 µM
Outline: as §1

Crizotinib = compound: C[C@@H](Oc1cc(-c2cnn(C3CCNCC3)c2)cnc1N)c1c(Cl)ccc(F)c1Cl [Crizotinib]; details: max 10 µM
Outline: as §1

Lapatinib = compound: CS(=O)(=O)CCNCc1ccc(-c2ccc3ncnc(Nc4ccc(OCc5cccc(F)c5)c(Cl)c4)c3c2)o1 [Lapatinib]; details: max 10 µM
Outline: as §1

AZD7648 = compound: Cc1cc2ncnn2cc1Nc1ncc2c(n1)n(C1CCOCC1)c(=O)n2C [AZD7648]; details: max 10 µM
Outline: as §1

AZD8186 = compound: C[C@@H](Nc1cc(F)cc(F)c1)c1cc(C(=O)N(C)C)cc2c(=O)cc(N3CCOCC3)oc12 [AZD8186]; details: max 10 µM
Outline: as §1

AZD2811 = compound: CCN(CCO)CCCOc1ccc2c(Nc3cc(CC(=O)Nc4cccc(F)c4)[nH]n3)ncnc2c1 [AZD2811]; details: max 1 µM
Outline: as §1

Venetoclax = compound: CC1(C)CCC(CN2CCN(c3ccc(C(=O)NS(=O)(=O)c4ccc(NCC5CCOCC5)c([N+](=O)[O-])c4)c(Oc4cnc5[nH]ccc5c4)c3)CC2)=C(c2ccc(Cl)cc2)C1 [Venetoclax]; details: max 1 µM
Outline: as §1

AZD0156 = compound: CN(C)CCCOc1ccc(-c2ccc3ncc4c(c3c2)n(C2CCOCC2)c(=O)n4C)cn1 [AZD0156]; details: max 3 µM
Outline: as §1

Gemcitabine = compound: Nc1ccn([C@@H]2O[C@H](CO)[C@@H](O)C2(F)F)c(=O)n1 [Gemcitabine]; details: max 0.3 µM
Outline: as §1

AZD6738 = compound: C[C@@H]1COCCN1C2=NC(=NC(=C2)C3(CC3)[S@](=N)(=O)C)C4=C5C=CNC5=NC=C4 [AZD6738]; details: max 10 µM
Outline: as §1

AZD5153 = compound: COc1nnc2ccc(N3CCC(c4ccc(OCCN5CCN(C)C(=O)[C@H]5C)cc4)CC3)nn12 [AZD5153]; details: max 1 µM
Outline: as §1

Selumetinib = compound: Cn1cnc2c(F)c(Nc3ccc(Br)cc3Cl)c(C(=O)NOCCO)cc21 [Selumetinib]; details: max 10 µM
Outline: as §1

AZD5991 = compound: Cc1c2c(nn1C)CSCc1cc(n(C)n1)CSc1cc(c3ccccc3c1)OCCCc1c(C(=O)O)n(C)c3c-2c(Cl)ccc13 [AZD5991]; details: max 1 µM
Outline: as §1

Dasatinib = compound: CC1=C(C(=CC=C1)Cl)NC(=O)C2=CN=C(S2)NC3=CC(=NC(=N3)C)N4CCN(CC4)CCO [Dasatinib]; details: max 2 µM
Outline: as §1

AZD4320 = compound: CN(CC[C@H](CSC1=CC=CC=C1)NC2=C(C=C(C=C2)S(=O)(=O)NC(=O)C3=CC=C(C=C3)N4CCC(CC4)[C@H](C5=CC=CC=C5C6=CC=C(C=C6)Cl)O)S(=O)(=O)C(F)(F)F)CCO [AZD4320]; details: max 1 µM
Outline: as §1

Alisertib = compound: COc1cc(Nc2ncc3c(n2)-c2ccc(Cl)cc2C(c2c(F)cccc2OC)=NC3)ccc1C(=O)O [Alisertib]; details: max 10 µM
Outline: as §1

Prexasertib = compound: COc1cccc(OCCCN)c1-c1cc(Nc2cnc(C#N)cn2)n[nH]1 [Prexasertib]; details: max 1 µM
Outline: as §1

SG3199 = compound: CC1=CN2[C@@H](C1)C=NC3=CC(=C(C=C3C2=O)OC)OCCCCCOC4=C(C=C5C(=C4)N=C[C@@H]6CC(=CN6C5=O)C)OC [SG3199]; details: max 0.001 µM
Outline: as §1

Doxorubicin = compound: COc1cccc2c1C(=O)c1c(O)c3c(c(O)c1C2=O)C[C@@](O)(C(=O)CO)C[C@@H]3O[C@H]1C[C@H](N)[C@H](O)[C@H](C)O1 [Doxorubicin]; details: max 1 µM
Outline: as §1

Cell Line	IC50, cell viability 72 h [1]	IC50, cell viability 72 h (Paclitaxel)	IC50, cell viability 72 h (Taselisib)	IC50, cell viability 72 h (Olaparib)	IC50, cell viability 72 h (Etoposide)	IC50, cell viability 72 h (AZD1775)	IC50, cell viability 72 h (AZD1390)	IC50, cell viability 72 h (Gefitinib)	IC50, cell viability 72 h (SRA737)	IC50, cell viability 72 h (Trametinib)	IC50, cell viability 72 h (SN-38)	IC50, cell viability 72 h (AZD5363)	IC50, cell viability 72 h (Carboplatin)	IC50, cell viability 72 h (Savolitinib)	IC50, cell viability 72 h (Palbociclib)	IC50, cell viability 72 h (MK-2206)	IC50, cell viability 72 h (5-Fluorouracil)	IC50, cell viability 72 h (Crizotinib)	IC50, cell viability 72 h (Lapatinib)	IC50, cell viability 72 h (AZD7648)	IC50, cell viability 72 h (AZD8186)	IC50, cell viability 72 h (AZD2811)	IC50, cell viability 72 h (Venetoclax)	IC50, cell viability 72 h (AZD0156)	IC50, cell viability 72 h (Gemcitabine)	IC50, cell viability 72 h (AZD6738)	IC50, cell viability 72 h (AZD5153)	IC50, cell viability 72 h (Selumetinib)	IC50, cell viability 72 h (AZD5991)	IC50, cell viability 72 h (Dasatinib)	IC50, cell viability 72 h (AZD4320)	IC50, cell viability 72 h (Alisertib)	IC50, cell viability 72 h (Prexasertib)	IC50, cell viability 72 h (SG3199)	IC50, cell viability 72 h (Doxorubicin)
NCI-H841 (Small Cell Lung Carcinoma)	> 5 µM	0.0266 µM	> 10 µM	> 10 µM	> 10 µM	1.69 µM	> 0.3 µM	> 10 µM	> 10 µM	> 1 µM	> 0.3 µM	> 10 µM	> 10 µM	> 1 µM	> 10 µM	> 10 µM	> 20 µM	> 10 µM	> 10 µM	> 10 µM	> 10 µM	> 1 µM	> 1 µM	> 3 µM	> 0.3 µM	> 10 µM	> 1 µM	> 10 µM	> 1 µM	> 2 µM	> 1 µM				
UACC-812 (Breast Carcinoma)	> 5 µM	1.92 µM	> 10 µM	> 10 µM	9.33 µM	> 3 µM	> 0.3 µM	> 10 µM	> 10 µM	> 1 µM	> 0.3 µM	> 10 µM	> 10 µM	> 1 µM	> 10 µM		> 20 µM	> 10 µM	7.47 µM	> 10 µM	> 10 µM	> 1 µM	> 1 µM	> 3 µM	> 0.3 µM	> 10 µM	> 1 µM	> 10 µM	> 1 µM	> 2 µM	> 1 µM	> 10 µM	0.851 µM	> 0.001 µM	> 1 µM
